Data from ChEMBL document CHEMBL1201862, “PubChem BioAssay data set” (2004).
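Protocol summary: plate cells (96-well), add compound at 5 concentrations, incubate 48 h, interpolate endpoints linearly. GI50 is the concentration that inhibits growth by half.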 The source made the active and inactive calls. Cut-off read from the data, not from the text of the source: active = GI50 up to about 1.1 µM and inactive = higher.

Experiments:
Assay in all cases: DTP human tumour cell line panel, 48 h
OVCAR-3 = test system: OVCAR-3
LOX IMVI = test system: LOX IMVI
MDA-MB-231 = test system: MDA-MB-231
MDA-MB-435 = test system: MDA-MB-435
HL-60 = test system: HL-60
RXF 393 = test system: RXF 393
NCI-H460 = test system: NCI-H460
U-251 = test system: U-251
SK-MEL-2 = test system: SK-MEL-2
IGROV-1 = test system: IGROV-1
CCRF-CEM = test system: CCRF-CEM
UO-31 = test system: UO-31
NCI-H226 = test system: NCI-H226
SF-268 = test system: SF-268
HT-29 = test system: HT-29
SK-MEL-28 = test system: SK-MEL-28
OVCAR-4 = test system: OVCAR-4
K562 = test system: K562
SF-295 = test system: SF-295
M14 = test system: M14

Row | SMILES | GI50 (OVCAR-3) | GI50 (LOX IMVI) | GI50 (MDA-MB-231) | GI50 (MDA-MB-435) | GI50 (HL-60) | GI50 (RXF 393) | GI50 (NCI-H460) | GI50 (U-251) | GI50 (SK-MEL-2) | GI50 (IGROV-1) | GI50 (CCRF-CEM) | GI50 (UO-31) | GI50 (NCI-H226) | GI50 (SF-268) | GI50 (HT-29) | GI50 (SK-MEL-28) | GI50 (OVCAR-4) | GI50 (K562) | GI50 (SF-295) | GI50 (M14)
1 | CC(=O)O[C@@H]1CO[C@H]2O[C@H]3[C@@H](C(C=O)=C[C@H](O)[C@@H]4C5=C(C(C)C)CC[C@]5(C)CC[C@@]34C)[C@@]2(O)C1=O [STRIATIN E] | 0.139 µM (active) | 0.277 µM (active) | 0.184 µM (active) | 0.174 µM (active) | 0.0175 µM (active) | 0.106 µM (active) | 0.255 µM (active) | 0.175 µM (active) | 0.23 µM (active) | 0.219 µM (active) | < 0.0271 µM (active) | 0.241 µM (active) | 0.378 µM (active) | 0.24 µM (active) | 0.0918 µM (active) | 0.234 µM (active) | 0.241 µM (active) | 0.0869 µM (active) | 0.586 µM (active) | 0.262 µM (active)
2 | C=CC[C@H]1[C@H](O[Si](C)(C)C(C)(C)C)C=CC(=O)[C@@H]1CC(=O)OCC | 13.1 µM (inactive) | 17.5 µM (inactive) | 14.5 µM (inactive) | 13.4 µM (inactive) | 8.04 µM (inactive) | 12.2 µM (inactive) | 14 µM (inactive) | 14.6 µM (inactive) | 14.9 µM (inactive) | 16.4 µM (inactive) | 12 µM (inactive) | 12.9 µM (inactive) | 14.8 µM (inactive) | 14.4 µM (inactive) | 9.06 µM (inactive) | 17.9 µM (inactive) | 11.8 µM (inactive) | 3.13 µM (inactive) | 13.5 µM (inactive) | 12.7 µM (inactive)
3 | COc1ccc(C[C@H]2NC[C@H](O)[C@H]2OC(C)=O)cc1 [ANISOMYCIN] | 0.0263 µM (active) | 0.0131 µM (active) | 0.0159 µM (active) | 0.0259 µM (active) | 0.0104 µM (active) | 0.0483 µM (active) | 0.0169 µM (active) | 0.0309 µM (active) | 0.0287 µM (active) | 0.0234 µM (active) | < 0.0122 µM (active) | 0.0404 µM (active) | 0.0234 µM (active) | 0.0361 µM (active) | < 0.0149 µM (active) | 0.0239 µM (active) | 0.0194 µM (active) | < 0.0124 µM (active) | < 0.0184 µM (active) | < 0.0136 µM (active)
4 | O=c1c2c(c1=O)C1(SCCCS1)c1cc(Cl)ccc1O2 | > 100 µM (inactive) | > 100 µM (inactive) | > 100 µM (inactive) | > 100 µM (inactive) | > 100 µM (inactive) | > 100 µM (inactive) | > 100 µM (inactive) | > 100 µM (inactive) | > 100 µM (inactive) | > 100 µM (inactive) | > 100 µM (inactive) | > 100 µM (inactive) | > 100 µM (inactive) | > 100 µM (inactive) | > 100 µM (inactive) | > 100 µM (inactive) | > 100 µM (inactive) | > 100 µM (inactive) | > 100 µM (inactive) | > 100 µM (inactive)
5 | CC1=NN(C2=NS(=O)(=O)c3ccccc3N2C)C(=O)C1 | > 100 µM (inactive) | > 100 µM (inactive) | > 100 µM (inactive) | > 100 µM (inactive) | > 100 µM (inactive) | > 100 µM (inactive) | > 100 µM (inactive) | > 100 µM (inactive) | > 100 µM (inactive) | > 100 µM (inactive) | > 100 µM (inactive) | > 100 µM (inactive) | > 100 µM (inactive) | > 100 µM (inactive) | > 100 µM (inactive) | > 100 µM (inactive) | > 100 µM (inactive) | > 100 µM (inactive) | > 100 µM (inactive) | > 100 µM (inactive)
6 | CC(=O)[C@]1(C)[C@H](C)O[C@](C)(CO)[C@H]1O[Si](C)(C)c1ccccc1 | 55 µM (inactive) | 20.4 µM (inactive) | 45.5 µM (inactive) | 50.1 µM (inactive) | 18.4 µM (inactive) | 14.1 µM (inactive) | 51.2 µM (inactive) | > 100 µM (inactive) | > 100 µM (inactive) | 17.1 µM (inactive) | 28.4 µM (inactive) | 28.8 µM (inactive) | 67.9 µM (inactive) | 54.5 µM (inactive) | 78.7 µM (inactive) | 87.1 µM (inactive) | 30.4 µM (inactive) | 32.8 µM (inactive) | 53 µM (inactive) | 83 µM (inactive)
7 | c1cc(CSc2ncnc3[nH]cnc23)ccn1 | 63 µM (inactive) | 28.2 µM (inactive) | > 100 µM (inactive) | 53.2 µM (inactive) | 67.9 µM (inactive) | > 100 µM (inactive) | > 100 µM (inactive) | > 100 µM (inactive) | 80.5 µM (inactive) | > 100 µM (inactive) | 66.8 µM (inactive) | 57.8 µM (inactive) | > 100 µM (inactive) | 92.9 µM (inactive) | 48.3 µM (inactive) | > 100 µM (inactive) | > 100 µM (inactive) | 27.8 µM (inactive) | > 100 µM (inactive) | 34.8 µM (inactive)
